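Grown in 96-well plates, cells were treated for 48 hours with each compound at five concentrations. Insufficient inhibition: endpoint recorded as highest concentration tested. GI50: concentration for 50% inhibition of growth. TGI marks complete inhibition of growth.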

Holding throughout (assay): DTP human tumour cell line panel, 48 h
The subject of assay [1] is SK-OV-3 ovarian.
Assay [2] deals with M14 melanoma.
Assay [3] concerns CAKI-1 renal.
Assay [4] concerns SF-295 CNS.
The test system of assay [5] is OVCAR-8 ovarian.
Assay [6] relates to IGROV1 ovarian.
Assay [7] concerns HCT-15 colon.
In assay [8] the test system is SF-539 CNS.
The test system of assay [9] is SF-268 CNS.
Assay [10] deals with OVCAR-4 ovarian.

The term GI50 denotes the concentration giving 50% growth inhibition. For orientation: TGI means the concentration at which net growth stops. Read a low TGI as more potent growth arrest. Regarding `Cc1[nH]n(-c2ccccc2)c(=O)c1C(=O)c1ccccc1`, the GI50 in assay [1] was more than 25 µM; in assay [2], more than 25 µM; in assay [3], more than 25 µM; in [4], more than 25 µM; in assay [5], more than 25 µM; in assay [6], more than 15.4 µM. Further, the GI50 in assay [7] is more than 23.9 µM; in assay [8], more than 25 µM; in [9], more than 25 µM; in assay [10] it was more than 25 µM. The TGI in assay [1], in assay [2], in assay [3], in assay [4], in assay [5] and in [6] was more than 25 µM throughout. The TGI in assay [7], in assay [8], in assay [9] and in [10] was more than 25 µM throughout.

Take `N[C@H](C(=O)O)[C@@H](Cl)CC(=O)O`: the TGI in [1], in assay [2], in assay [3], in assay [4], in assay [5] and in [6] was more than 100 µM each time. For the same compound, the TGI in assay [7], in [8], in [9] and in assay [10] was more than 100 µM in each case.

`O=c1[nH]cnc2nc(-c3ccc(N(CCCl)CCCl)cc3)[nH]c12`: the GI50 was 5.17 µM in assay [1]; 4.97 µM in assay [2]; 4.25 µM in assay [3]; 1.57 µM in [4]; 8.89 µM in [5]; 26.9 µM in [6]. Also, the GI50 in assay [7] is 9.81 µM; in assay [8] it was 15.1 µM; in assay [9], 28.6 µM; in [10], 20.1 µM. In addition, the TGI was 42.8 µM in [1]; more than 100 µM in [2]; more than 100 µM in assay [3]; 6.5 µM in assay [4]; more than 100 µM in assay [5]; more than 100 µM in assay [6]. Moreover, the TGI in assay [7] is more than 100 µM; in [8] it was 63 µM; in assay [9], more than 100 µM; in assay [10], more than 100 µM.

`Cc1ccc([N+](=O)[O-])cc1NC(=O)C(=O)C1CCC2=C(Sc3ccccc3N2)C1=O` (stereo not given): the TGI in [1], in [2], in assay [3], in assay [4], in [5] and in assay [6] was more than 100 µM in each case. Further, the TGI in [7], in assay [8], in assay [9] and in assay [10] was more than 100 µM each time.

On to `CC(C)(O)CCC(O)C(C)(O)C1CCC2(O)C3=CC(=O)C4(O)CC(O)C(O)CC4(C)C3CCC12C` (stereo not given) (tested in a mixture with another compound), for which the TGI in [1], in [2], in assay [3], in assay [4], in [5] and in [6] was more than 100 µM in each case. For the same compound, the TGI in assay [7], in assay [8], in [9] and in [10] was more than 100 µM each time.

Regarding `O=C(O)c1cc2c(c3ccsc13)-c1ccccc1CC2`, the GI50 in [1] was 85.1 µM; in [2], 42.2 µM; in [3], 52 µM; in assay [4], 29.5 µM; in assay [5], 40.7 µM; in [6], 33.9 µM. In addition, the GI50 is 39 µM in assay [7], 36.5 µM in assay [8], 44 µM in [9] and 23.3 µM in assay [10]. Further, the TGI in [1], in assay [2], in assay [3], in [4], in [5] and in assay [6] was more than 100 µM each time. The TGI in assay [7], in [8], in [9] and in assay [10] was more than 100 µM each time.

As to `C[C@H]1CC2=CC(=O)CC[C@]2(C)[C@H]2CC[C@@]3(C)[C@@H](CC[C@]3(C)O)[C@H]12`, the GI50 was 39.4 µM in assay [1]; 27.2 µM in assay [2]; 24 µM in assay [3]; 21.4 µM in assay [4]; 34 µM in assay [5]; 27.3 µM in [6]. Moreover, the GI50 was 28.2 µM in [7], 32.5 µM in assay [8], 33.3 µM in assay [9] and 38 µM in assay [10]. In addition, the TGI in assay [1] is more than 100 µM; in assay [2] it was more than 78.9 µM; in assay [3], 77.2 µM; in assay [4] it was 62.5 µM; in assay [5], more than 100 µM; in [6] it was more than 73.3 µM. In addition, the concentration for total growth inhibition (TGI) in [7], in assay [8], in assay [9] and in [10] was more than 100 µM each time.

Consider `Cc1cc(Cl)ccc1NC(=O)NC(C)(C)COC(=O)Nc1cccc(Cl)c1`, for which the GI50 in [1] was 22.5 µM; in [2], 8.38 µM; in [3], 4.38 µM; in [4], 0.945 µM; in [5], 5.42 µM; in assay [6], 11.1 µM. Besides, the GI50 in assay [7] was 2.48 µM; in assay [8], 9.4 µM; in assay [9], 13.5 µM; in [10], 6.55 µM. Further, the TGI in assay [1] was 96 µM; in assay [2] it was more than 100 µM; in [3], 75.3 µM; in assay [4], 8.31 µM; in assay [5], 64.8 µM; in assay [6], more than 100 µM. The TGI in assay [7] was 13.1 µM; in assay [8], more than 100 µM; in assay [9], 78 µM; in [10], 90.6 µM.

As for `Cc1nn2c(/C=C3\C(=O)Nc4ccccc43)c(C)nc2s1`, the GI50 in assay [1] was 34.8 µM; in assay [2], 12.3 µM; in [3], more than 100 µM; in [4], 29.1 µM; in [5], 77.8 µM; in assay [6], 30.6 µM. Besides, the GI50 in assay [7] is 17.1 µM; in [8] it was 49.8 µM; in assay [9] it was 54.6 µM; in assay [10], more than 100 µM. Moreover, the TGI in [1], in assay [2], in assay [3], in assay [4], in assay [5] and in [6] was more than 100 µM in each case. Besides, the TGI in [7], in assay [8], in assay [9] and in assay [10] was more than 100 µM each time.

Values taken from PubChem BioAssay (NCI).
